Assay results: patent publication US6780853B1, “Neuroactive steroids of the androstane and pregnane series” (priority 1995, dated 2004)

Legend:
Progesterone Receptors = experiment: Inhibition of 3H-Progesterone Binding to the Bovine Uteral Progesterone Receptors; details: competitor 10^−6M; 3H-progesterone 0.15 nM
[1] = molecular target: GABA receptor complex (GRC); experiment: [35S]TBPS binding in rat cerebral cortex P2 homogenate; details: for IC50: concentration to inhibit 50% of control [35S]TBPS binding, 2 nM [35S]TBPS; for IMAX (maximum inhibition): maximum inhibition of [35S]TBPS binding
In short: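 Male Sprague-Dawley rat cortical P2 homogenate (0.5 mg protein) incubated with 2 nM [35S]TBPS in 50 mM Na/K phosphate pH 7.4, 200 mM NaCl, with GABA plus (+)bicuculline, 90 min at 25 °C. Filter-bound radioactivity counted; non-specific binding with […]; IC50 and maximal inhibition by nonlinear regression.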

[2] = test system: metrazol induced convulsions; experiment: Antimetrazol activity in mice; assay type: in vivo; details: IP, 50% hpbcd, 10 mg/kg, 10 min before metrazol 85 mg/kg
Method: Experiments were also performed to determine the physiological relevance of neuroactive steroid and GABA receptor interactions by assessing the ability of compounds of the present invention to prevent metrazol induced convulsions in mice. Mice were injected with various doses of the test compounds of the invention, 10 minutes prior to the injection of metrazol. The time to onset of myoclonus (presence of forelimb clonic activity) induced by metrazol was determined by observing each mouse for a period of 30 minutes. In control mice, metrazol (85 mg/kg) will induce convulsion in 95% of the animals.
The anticonvulsant tests are similar to that described above.

[3] = test system: time spent on the open-arms; experiment: Elevated plus-maze test; assay type: in vivo, N.I.H. Swiss-Webster mice; details: IP, 50% hpbcd, 10 mg/kg
Source text: The theoretical basis for the elevated plus-maze test is similar to that of the fight/dark transition test. As it was described previously by Pellow et al. J. Neurosci. Meth. 14:149-167 (1985)), the elevated plus-maze apparatus is designed to utilize the mice's natural aversion to open spaces. The apparatus consists of two open-arms and two enclosed-arms. The elevated plus-maze test allows for two measures of anxiety, the number of entries into the open-arms and the time spent on the open-arms, both expressed as a percentage of the total number of entries and time spent in/on both the open-arms and enclosed-arms.
Male N.I.H Swiss-Webster mice (Harlan, Indianapolis, Ind.) weighing 15-20 g were housed four per cage in polyethylene cages with sawdust bedding. The colony room was environmentally controlled (22° C.) with a 12 hr light/dark cycle (0600-1800 hr). Food and water were available ad libitum, except during testing. The experiments were run from 0700-1500 hr and groups were counterbalanced for time of day effects. Mice were only administered drug or vehicle once.
The method used was previously described (Lister, Psychopharmacol. 92:180-185 (1987)). The apparatus included two open arms perpendicular to two enclosed arms elevated 50 cm from the floor. Each arm was 50 cm long and the walls of the enclosed arms were 40 cm tall. The maze was made completely of black plexiglass. Incandescent 200 W light bulbs were above each of the open arms to produce a strong contrast between the open arms and the enclosed arms.
[…] Swiss-Webster mice were placed in the center of the plus-maze facing an open arm. During the 5 min test period, the number of entries onto the open arms and the enclosed arms, and the time spent in the open arms and enclosed arms were measured. All four paws had to be within an arm for the dependent variable to be measured. Therefore, the time spent in the center of the maze is not counted, so the total time spent in the open arms and the enclosed arms may not equal 5 min.

loss-of-righting reflex = experiment: Anesthetic activity, loss-of-righting reflex; assay type: in vivo, mice; details: iv
Method: The compounds of and used in the invention can also be used for anesthetic indications at high doses. However, the preferred route of administration to induce anesthesia is intravenous (i.v.) administration. In animals, a drug's anesthetic properties is measured by the drug's ability to produce a loss-of-righting reflex. The loss-of-righting reflex is defined as the inability of an animal to right itself within 30 seconds when placed on its back. Mice were administered drug i.v. in the lateral tail vein. Following administration, mice were placed on their backs and observed for loss-of-righting reflex.

[4] = molecular target: T1, Mineralocorticoid Receptors (Rattus norvegicus, UniProt P22199); experiment: Inhibition of 3H-Aldosterone Binding to Hippocampal Mineralocorticoid Receptors; details: competitor 10^−6M; 3 nM 3H-aldosterone, RU28362 0.5 μM
T1 construct: To isolate the mineralocorticoid receptor, brain cytosol fractions were prepared; from tissue; host or cells: brain (hippocampal) cytosol of adrenalectomized rats
T1 sequence (P22199 1-981): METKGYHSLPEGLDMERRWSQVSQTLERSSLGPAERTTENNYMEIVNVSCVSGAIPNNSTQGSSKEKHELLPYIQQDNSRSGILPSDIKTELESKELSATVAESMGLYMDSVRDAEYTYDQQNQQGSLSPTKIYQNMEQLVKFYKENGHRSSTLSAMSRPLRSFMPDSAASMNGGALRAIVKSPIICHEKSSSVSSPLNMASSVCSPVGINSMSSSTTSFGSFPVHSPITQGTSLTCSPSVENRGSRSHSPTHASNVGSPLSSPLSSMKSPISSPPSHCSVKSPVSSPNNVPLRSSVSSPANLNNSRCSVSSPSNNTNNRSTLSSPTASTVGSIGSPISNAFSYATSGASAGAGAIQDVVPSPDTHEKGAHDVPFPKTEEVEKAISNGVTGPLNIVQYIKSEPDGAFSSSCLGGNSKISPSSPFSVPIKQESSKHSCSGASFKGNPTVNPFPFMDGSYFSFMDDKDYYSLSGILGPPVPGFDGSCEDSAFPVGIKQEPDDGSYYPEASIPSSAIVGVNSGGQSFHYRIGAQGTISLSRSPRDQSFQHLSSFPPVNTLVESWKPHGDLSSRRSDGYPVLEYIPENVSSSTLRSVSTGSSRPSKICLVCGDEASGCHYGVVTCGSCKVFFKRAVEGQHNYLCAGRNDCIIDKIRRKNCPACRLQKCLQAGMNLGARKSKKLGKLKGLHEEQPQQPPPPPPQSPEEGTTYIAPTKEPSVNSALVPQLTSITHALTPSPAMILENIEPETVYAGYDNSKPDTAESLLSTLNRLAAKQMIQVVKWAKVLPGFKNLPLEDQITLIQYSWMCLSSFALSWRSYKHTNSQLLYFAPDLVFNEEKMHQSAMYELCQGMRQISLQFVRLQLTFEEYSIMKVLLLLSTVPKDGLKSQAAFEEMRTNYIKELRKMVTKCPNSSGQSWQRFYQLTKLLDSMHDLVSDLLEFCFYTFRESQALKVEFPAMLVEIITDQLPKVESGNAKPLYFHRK
Method: (§1) Various hormonal activities of representative neuroactive steroids were further studied through testing their potential estrogenic, mineralocorticoid and glucocorticoid activities. These activities were analyzed by monitoring the ability of the compounds to inhibit binding of the steroid hormones to their respective hormone receptors.
In Table 4, rats were adrenalectornized 3 days prior to sacrifice.

Estrogen Receptors = molecular target: T2, Estrogen Receptors (Bos taurus, UniProt P49884); experiment: Inhibition of 3H-Estradiol Binding to Bovine Uteral Estrogen Receptors; details: competitor 10^−6M; 3H-estradiol 0.15 nM
T2 construct: from tissue; host or cells: bovine uterus cytosol
T2 sequence (P49884 1-596): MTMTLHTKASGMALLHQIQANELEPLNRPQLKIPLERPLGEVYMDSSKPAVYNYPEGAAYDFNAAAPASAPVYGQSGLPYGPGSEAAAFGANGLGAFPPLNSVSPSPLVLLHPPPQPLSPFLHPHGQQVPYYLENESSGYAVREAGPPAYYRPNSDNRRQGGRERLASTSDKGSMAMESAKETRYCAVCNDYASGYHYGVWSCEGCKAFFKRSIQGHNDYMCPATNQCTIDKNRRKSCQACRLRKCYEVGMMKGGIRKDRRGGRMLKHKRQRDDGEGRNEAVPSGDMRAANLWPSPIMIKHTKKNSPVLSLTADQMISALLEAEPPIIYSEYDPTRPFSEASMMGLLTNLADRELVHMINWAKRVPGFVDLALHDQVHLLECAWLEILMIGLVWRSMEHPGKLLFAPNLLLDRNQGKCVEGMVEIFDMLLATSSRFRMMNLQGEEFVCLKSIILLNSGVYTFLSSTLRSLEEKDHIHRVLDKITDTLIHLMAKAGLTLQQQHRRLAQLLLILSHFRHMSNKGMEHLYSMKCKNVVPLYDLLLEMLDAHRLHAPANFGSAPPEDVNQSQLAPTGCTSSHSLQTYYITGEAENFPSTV
Method: as §1

Row | Compound | % of Inhibition (Progesterone Receptors) [%] | melting point [°C] | IC50 [1] [µM] | IMAX (maximum inhibition) [1] [%] | % Protected [2] [%] | Plus-Maze (% Control), time spent on the open-arms [3] [% Control] | further results
1 | CCC(=O)[C@@]1(C)CC[C@H]2[C@@H]3CCC4=CC(=O)CCC4=C3CC[C@@]21C [Example R5020] | 100 |  |  |  |  |  | 
2 | C[C@]12CC[C@@H](O)C[C@@H]1CC[C@@H]1[C@@H]2CC[C@]2(C)[C@@H](C(=O)CSc3ccncc3)CC[C@@H]12 [3α-hydroxy-21-(pyrid-4-ylthio)-5α-pregnan-20-one] |  | 154 to 156 | 0.023 | 98 | 62.5 | 148 | 
3 | COC1CCC2C3CCC4CC(O)(C#Cc5ccc(C(C)=O)cc5)CCC4(C)C3CCC12C (stereo not drawn) [3β-(4′-acetylphenylethynyl)-3α-hydroxy-17β-methoxy-5β-androstane] |  | 189 to 191 | 0.02 | 104 | 25 | 129 | 
4 | C[C@]12CC[C@@H](O)C[C@@H]1CC[C@@H]1[C@@H]2CC[C@]2(C)[C@@H](C(=O)CO)CC[C@@H]12 [3α,21-Dihydroxy-5α-pregnan-20-one, reference compound] | 13 |  | 0.076 | 100 |  |  | 
5 | COC1CCC2C3CCC4CC(O)(C(F)(F)F)CCC4C3CCC12C (stereo not drawn) [3α-Hydroxy-17β-methoxy-3β-trifluoromethyl-19-nor-5β-androstane] |  | 40 to 42 | 0.093 | 115 |  | 107 | Loss-of-Righting Reflex (%) (loss-of-righting reflex; 50% hpbcd, 10 mg/kg): 62.5%
6 | COC1CCC2C3CCC4CC(O)(C(F)(F)F)CCC4(C)C3CCC12C (stereo not drawn) [3α-Hydroxy-17β-methoxy-3β-trifluoromethyl-5β-androstane] [3β-trifluoromethyl-3α-hydroxy-17β-methoxy-5β-androstane] |  | 122 to 127 | 0.216 | 103 | 37.5 | 115 | Loss-of-Righting Reflex (%) (loss-of-righting reflex; 10% hpbcd, 20 mg/kg): 37.5%
7 | CC(=O)[C@H]1CC[C@H]2[C@@H]3CC[C@H]4C[C@H](O)CC[C@]4(C)[C@H]3C(=O)C[C@]12C [3α-Hydroxy-5α-pregnan-11,20-dione, reference compound] |  |  |  |  |  |  | Loss-of-Righting Reflex (%) (loss-of-righting reflex; 50% hpbcd, 10 mg/kg): 37.5%
8 | 5α-pregnan-3β,20-trimethyl-3α,20-diol | 8 |  |  |  |  |  | % of Inhibition [4]: 0%; % of Inhibition (Estrogen Receptors): 0%
9 | C=C(C)C#CC1(O)CCC2(C)C(CCC3C2CCC2(C)C(OC)CCC32)C1 (stereo not drawn) [3α-Hydroxy-17β-methoxy-3β-(3′-methylbut-3′-en-1′-ynyl)-5β-androstane] |  |  |  |  | 87.5 |  | Loss-of-Righting Reflex (%) (loss-of-righting reflex; 50% hpbcd, 10 mg/kg): 100%
10 | CC(=O)[C@H]1CC[C@H]2[C@@H]3CC[C@H]4C[C@H](O)CC[C@]4(C)[C@H]3CC[C@]12C [3α-Hydroxy-5α-pregnan-20-one, reference compound] | 14 |  | 0.037 | 95 |  |  | 
11 | C[C@H](O)[C@H]1CC[C@H]2[C@@H]3CC[C@H]4C[C@H](O)CC[C@]4(C)[C@H]3CC[C@]12C [5α-pregnan-3α,20-diol, 5α-pregnan-3α,20α-diol] | 6 |  |  |  |  |  | % of Inhibition [4]: 0%; % of Inhibition (Estrogen Receptors): 0%
12 | CC(O)C1CCC2C3CCC4CC(O)CCC4(C)C3CCC12C (stereo not drawn) [5β-pregnan-3α,20α-diol] | 0 |  |  |  |  |  | % of Inhibition [4]: 0%; % of Inhibition (Estrogen Receptors): 8%
13 | C[C@]12CC[C@@H](O)C[C@H]1CC[C@@H]1[C@@H]2CC[C@]2(C)[C@@H](C(=O)CSCCO)CC[C@@H]12 [3α-hydroxy-21-hydroxyethylthio-5β-pregnan-20-one] |  | 150 to 152 | 0.141 | 71 | 12.5 |  | 
14 | CC(=O)[C@H]1CC[C@H]2[C@@H]3CC[C@@H]4C[C@H](O)CC[C@]4(C)[C@H]3CC[C@]12C [5β-pregnan-3α-of-20-one, 5β-pregnan-3α-ol-20 -one] | 9 |  |  |  |  |  | 
15 | C#CC1(O)CCC2C(CCC3C2CCC2(C)C(OC)CCC32)C1 (stereo not drawn) [3β-Ethynyl-3α-hydroxy-17β-methoxy-19-nor-5β-androstane] |  | 152 to 154 | 0.056 | 107 |  | 158 | Loss-of-Righting Reflex (%) (loss-of-righting reflex; 50% hpbcd, 10 mg/kg): 100%
